Source: publication PMC2877039 (Developmental cell, 2010)
pKd: −log10 of the molar value.

Tests used:
Assay in all cases: liposome co-sedimentation, anti-Sec2 western blot
Format in all cases: binding
Sec2p [1] = biological target: T1, Sec2p (Saccharomyces cerevisiae, UniProt P17065); conditions: GST-Sec2; liposomes with 10 mol% PI4P; PBS, 0.4 mg/ml BSA, 25 °C
T1 sequence (P17065 1-759): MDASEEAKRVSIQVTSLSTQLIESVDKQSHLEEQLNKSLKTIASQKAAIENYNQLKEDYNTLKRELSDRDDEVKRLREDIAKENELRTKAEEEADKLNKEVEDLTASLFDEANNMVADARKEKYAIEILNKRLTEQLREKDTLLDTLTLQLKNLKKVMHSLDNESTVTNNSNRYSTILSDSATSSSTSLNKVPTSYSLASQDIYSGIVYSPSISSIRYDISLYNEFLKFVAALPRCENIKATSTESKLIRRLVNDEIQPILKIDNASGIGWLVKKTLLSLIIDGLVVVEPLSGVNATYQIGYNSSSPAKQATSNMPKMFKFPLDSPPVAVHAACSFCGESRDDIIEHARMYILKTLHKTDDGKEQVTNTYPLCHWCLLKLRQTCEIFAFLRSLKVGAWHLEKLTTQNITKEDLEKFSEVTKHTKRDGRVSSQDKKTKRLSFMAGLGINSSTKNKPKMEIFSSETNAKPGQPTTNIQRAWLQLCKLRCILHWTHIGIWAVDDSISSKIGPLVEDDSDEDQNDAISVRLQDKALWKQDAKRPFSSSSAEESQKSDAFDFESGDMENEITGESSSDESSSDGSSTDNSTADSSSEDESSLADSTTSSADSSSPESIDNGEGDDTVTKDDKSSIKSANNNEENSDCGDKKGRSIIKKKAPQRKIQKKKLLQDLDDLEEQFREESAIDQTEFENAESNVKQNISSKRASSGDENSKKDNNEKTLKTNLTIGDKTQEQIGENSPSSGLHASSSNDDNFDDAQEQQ

Sec2p [2] = biological target: T1, Sec2p; conditions: read-out: approximate Kd; GST-Sec2p; 0.05-0.5 mM liposomes with 10 mol% PI4P; PBS, 0.4 mg/ml BSA, 25 °C
Sec2p [3] = biological target: T1, Sec2p; conditions: GST-Sec2; liposomes with 10 mol% PI4P; PBS, 0.4 mg/ml BSA, 25 °C; remark: listed apart in the source
Sec2p [4] = biological target: T1, Sec2p; conditions: GST-Sec2; liposomes with 10 mol% PI4P; PBS, 0.4 mg/ml BSA, 25 °C; remark: listed apart in the source

PI4P was tested, and the “PI4P-binding affinity, % of wildtype” value (Sec2p [1]) was ~ 30%, the pKd (Sec2p [2]) was roughly 3.73 and the “PI4P-binding affinity, % of wildtype” value (Sec2p [3]) was ~ 30%. The “PI4P-binding, % of wildtype” value (Sec2p [4]) was ~ 10%.
